Six compounds from PMC4398322, “Snake neurotoxin α-bungarotoxin is an antagonist at native GABAA receptors” (Neuropharmacology, 2015) can be followed below.

Values joined by “and” are separate entries in the source; they are usually repeats but may differ in a detail not shown here. Identical values can stand only once. Like-named read-outs stand apart in the source and are kept apart here.

The target in one assay is T1, α2β2γ2 GABAARs (Mus musculus, UniProt P22723+P26048+P63137).
T1 construct: expressed in transfected cells; host or cells: HEK-293
Type of assay: binding, murine. On the procedure:
(§1) Murine GABAAR α1-6, β1-3, γ2 and δ cDNAs subcloned into pRK-5 and pEGFP-C1 have been described previously ([Mortensen et al., 2011]).
(§2) Cells were transfected with equimolar ratios of cDNAs encoding for α1–6, β1–3 and δ or γ2 GABAA receptor subunits along with eGFP using a calcium phosphate method ([Mortensen et al., 2011]) 15–45 min after plating.
Live transfected HEK-293 cells were studied 48 h after transfection and washed with Krebs to remove cell culture media and incubated in 400 nM α-Bgtx coupled with Alexa Fluor 555 (α-Bgtx-AF555; Life Technologies) for 10 min at room temperature (RT). Cells were washed and fixed in 4% paraformaldehyde (PFA; Sigma) for 10 min at RT. The cells were imaged immediately post-fixation in saline using a Zeiss LSM 510 Meta confocal microscope and an Achroplan x40 water DIC objective (NA 0.8) as described previously ([Hannan et al., 2012]). This involved choosing the optimal z-section and acquiring images as a mean of 4 scans in 16-bits using a 543 nm Helium–Neon laser and a 560 nm long-pass filter for α-Bgtx-AF555 and a 488 Argon laser with a 505–530 nm band-pass filter for eGFP.
Confocal images were analysed using ImageJ (version 1.410) as described previously ([Hannan et al., 2013]). For each cell the surface membrane was identified by drawing a region-of-interest (ROI) in the eGFP channel and this was transferred to the α-Bgtx-AF555 channel and the mean membrane fluorescence values were determined. Mean background fluorescence was determined from a region devoid of cells. This was subtracted from the mean membrane fluorescence providing a mean corrected fluorescence intensity value. These values, for different combinations of receptors and drugs, were graphically plotted using Origin.
To identify the location of the α-Bgtx binding site on GABAARs, we pre-incubated HEK-293 cells expressing α2β2γ2 with a range of ligands that act at GABAARs and nAChRs, for 5 min at RT followed by co-incubation with α-Bgtx-AF555 for 10 min at RT (Fig. 4A). These ligands were selected to ‘protect by binding occupancy’ known binding site domains on GABAARs and nAChRs.
A, Schematic of the experimental protocol. 48 hrs after transfection, HEK-293 cells expressing eGFP and α2β2γ2 were incubated in drug for 5 min at RT followed by the addition of drug +400 nM α-Bgtx-AF555 for 10 min at RT to label cell surface receptors. The cells were washed to remove the excess α-Bgtx-AF555, fixed and imaged. B, Images of cells expressing α2β2γ2, stained with α-Bgtx-AF555 in the presence of 1 mM d-Tc, 1 mM nicotine, or 1 mM carbachol. C, Mean cell surface fluorescence of α-Bgtx-AF555 bound to surface GABAARs in the presence of d-Tc, nicotine or carbachol. […] Scale bars 5 μm.

A further assay deals with T2, α5β2γ2 GABAAR (Mus musculus, UniProt P22723+P63137+Q8BHJ7).
T2 construct: expressed in transfected cells; host or cells: HEK-293
In words: Whole-cell GABA-activated currents in transfected HEK-293 cells (patch clamp). The format is cell-based, murine. The method, then: as §1, §2
(§3) Patch electrodes had resistances of 4–5 MΩ and were filled with an internal solution containing (mM): 120 CsCl 1 MgCl2, 11 EGTA, 30 KOH, 10 HEPES, 1 CaCl2, and 2 K2ATP; pH – 7.2. HEK-293 cells were superfused with a saline solution containing (mM): 140 NaCl, 4.7 KCl, 1.2 MgCl2, 2.52 CaCl2, 11 Glucose, and 5 HEPES; pH 7.4. The saline for recording from primary neurons was supplemented with 2 mM kynurenic acid and pH adjusted to 7.4 to block all spontaneous excitatory post-synaptic currents (EPSCs). Membrane currents were filtered at 5 kHz (−3 dB, 6th pole Bessel, 36 dB/octave). HEK-293 cells were studied 48 h after transfection by voltage clamping cells at a holding potential of −20 to −40 mV with optimised series resistance (Rs, <10 MΩ) and whole-cell membrane capacitance compensation. Neuronal membrane currents were similarly recorded at a holding potential of −60 mV.
(§4) Spontaneous inhibitory postsynaptic currents (IPSCs) were recorded from dentate gyrus granule cells (DGGCs) with the same internal solution as above. Cells were voltage clamped at −60 mV and IPSCs were recorded using 5 kHz filtering with optimal series resistance and whole-cell capacitance compensation.
A general note: In patch-clamp work, channel activity is measured electrically.

Another assay deals with T3, α1β2γ2 GABAAR (Mus musculus, UniProt P22723+P62812+P63137).
T3 construct: expressed in transfected cells; host or cells: HEK-293
Described as above. Type of assay: cell-based, murine. On the procedure: as §1, §2, §3, §4

Another assay addresses T4, α4β2δ receptors (Mus musculus, UniProt P22933+P63137+Q9D6F4).
T4 construct: expressed in transfected cells; host or cells: HEK-293
In words: Whole-cell GABA-activated and leak currents in transfected HEK-293 cells (patch clamp). Type of assay: cell-based, murine. The method, then: as §1, §2, §3, §4

The subject of assay [1] is GABAARs expressed in HEK293 cells. The format is cell-based, murine.
Assay [2] relates to dentate gyrus granule cells (DGGCs). In words: Tonic inhibition (holding current, RMS noise) in dentate gyrus granule cells of acute hippocampal slices. Type of assay: cell-based, mouse. On the procedure:
(§5) Acute transverse brain slices were prepared from adult (P115–125) male C57BL/6J mice in accordance with the UK Animals (Scientific Procedures) Act 1986.
(§6) The brain was rapidly removed after terminal anaesthesia with isoflurane and immersed in ice-cold slicing solution composed of (mM): 85 NaCl, 2.5 KCl, 1 CaCl2, 4 MgCl2, 1.25 NaH2PO4, 26 NaHCO3, 75 sucrose, and 25 glucose, 2 kynurenic acid, pH – 7.4. The slicing solution was continuously bubbled with 95% […] and 5% CO2. Transverse 250 μm slices containing the ventral hippocampus were cut with a Leica VT1200S vibroslicer. The slicing solution was exchanged at 37 °C for 60 min with a recording solution containing (mM): 125 NaCl, 2.5 KCl, 2 CaCl2, 1 MgCl2, 1.25 NaH2PO4, 26 NaHCO3, 2 kynurenic acid, and 25 glucose, pH 7.4.
For tonic inhibition, to determine the average holding currents, a 60 s continuous current recording was sampled every 1 s, discarding epochs that coincided with IPSCs. Any effect of drugs on the holding current was defined by subtracting the average holding currents in control and during drug application.
The baseline noise (RMS) was calculated before and during drug treatment. This was estimated from a continuous (30 s) current recording, sampled every 100 ms. The median current was calculated every 5 s and values more than twice the standard deviation from the median (usually due to IPSCs) were eliminated. Baseline GABA-mediated current noise was defined by subtracting RMS values before and after drugs, e.g., α-Bgtx or bicuculline.

Another assay concerns the target T5, α4β2γ2 GABAAR (Mus musculus, UniProt P22723+P63137+Q9D6F4).
T5 construct: expressed in transfected cells; host or cells: HEK-293
Type of assay: cell-based, murine. The method, then: as §1, §2
as §3, with “HEK-293 cells were studied 48 h after transfection by voltage clamping cells at a holding potential of −20 to −40 mV with optimised series resistance (Rs, <10 MΩ) and whole-cell membrane capacitance compensation.” left out
as §4

Assay [3] has as its system native hippocampal GABAARs. The format is cell-based, rat. The method, then: Dissociated hippocampal neurons were prepared from embryonic day 18 rat pups as described ([Hannan et al., 2012]). Briefly, hippocampi were dissected in ice-cold Hank's Balanced Salt Solution (HBSS) (Ca^2+/Mg^2+ free) before enzymatic dissociation in 0.1% (w/v) trypsin at 37 °C for 10 min followed by serial washes in pre-warmed HBSS to remove trypsin prior to trituration. Cells were mechanically dissociated using fire-polished glass Pasteur pipettes in plating medium composed of minimal essential medium (MEM) supplemented with 5% (v/v) fetal calf serum (FCS), 5% (v/v) horse serum, penicillin-G and streptomycin (200 units/ml and 200 μg/ml), 2 mM L-glutamine and 35 mM glucose. Cells were plated at a density of 10^6 per ml in plating medium on glass cover-slips previously coated with poly-D-lysine. The neurons were grown and maintained at 37 °C in a humidified 95% air/5% CO2 atmosphere.
After plating (30 min), the medium was removed and replaced with maintenance medium composed of Neurobasal-A supplemented with 1% (v/v) B-27, penicillin-G and streptomycin (100 units/ml and 100 μg/ml), 0.5% (v/v) Glutamax and 35 mM glucose.
as §3, §4

Assay [4] concerns dentate gyrus granule cells (DGGCs). In words: Spontaneous IPSCs in dentate gyrus granule cells of acute hippocampal slices. Type of assay: cell-based, mouse. On the procedure:
as §5, §6, §4
IPSCs were detected and analysed using WinEDR and WinWCP (John Dempster, University of Strathclyde, UK). IPSC frequency was calculated using events detected over 60 s epochs of recording. […] This function provided the Gaussian mean amplitude current (μ) and standard deviation (σ). All the distributions were fitted using this function in Origin (Ver 6). The accuracy of the fits was checked by repeating the iterative non-linear fitting procedure after substituting the best-fit parameters obtained for the control and α-Bgtx datasets with new values.

[5] abbreviates: 1 mM ligand, 5 min pre-incubation then + 400 nM α-Bgtx-AF555 10 min, n = 7, Fig. 4B–C.

T4 sequence (P22933 17-449): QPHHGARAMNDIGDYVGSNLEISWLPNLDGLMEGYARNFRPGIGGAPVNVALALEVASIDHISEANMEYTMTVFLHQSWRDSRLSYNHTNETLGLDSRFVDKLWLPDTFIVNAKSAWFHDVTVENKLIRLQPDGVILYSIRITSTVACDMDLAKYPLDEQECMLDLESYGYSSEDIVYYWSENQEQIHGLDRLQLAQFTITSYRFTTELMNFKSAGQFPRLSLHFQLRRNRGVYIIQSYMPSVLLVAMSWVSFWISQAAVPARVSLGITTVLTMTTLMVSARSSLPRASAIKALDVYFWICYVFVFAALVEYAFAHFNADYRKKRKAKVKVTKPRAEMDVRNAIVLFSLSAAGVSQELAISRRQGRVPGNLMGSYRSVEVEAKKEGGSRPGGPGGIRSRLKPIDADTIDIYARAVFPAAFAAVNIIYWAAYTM
T4 sequence (P63137 25-512): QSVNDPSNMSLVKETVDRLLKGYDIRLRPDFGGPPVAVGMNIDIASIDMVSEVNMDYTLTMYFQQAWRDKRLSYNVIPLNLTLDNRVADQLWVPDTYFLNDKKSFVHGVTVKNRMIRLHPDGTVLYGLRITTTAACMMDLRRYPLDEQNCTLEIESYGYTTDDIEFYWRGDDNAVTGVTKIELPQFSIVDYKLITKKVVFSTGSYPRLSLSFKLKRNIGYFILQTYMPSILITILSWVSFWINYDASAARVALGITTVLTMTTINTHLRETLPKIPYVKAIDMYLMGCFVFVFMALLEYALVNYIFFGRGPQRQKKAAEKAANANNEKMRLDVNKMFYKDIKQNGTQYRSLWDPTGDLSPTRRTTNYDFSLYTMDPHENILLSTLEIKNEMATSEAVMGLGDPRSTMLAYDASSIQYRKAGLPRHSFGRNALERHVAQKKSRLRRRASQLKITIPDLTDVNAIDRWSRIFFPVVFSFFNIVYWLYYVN
T4 sequence (Q9D6F4 36-552): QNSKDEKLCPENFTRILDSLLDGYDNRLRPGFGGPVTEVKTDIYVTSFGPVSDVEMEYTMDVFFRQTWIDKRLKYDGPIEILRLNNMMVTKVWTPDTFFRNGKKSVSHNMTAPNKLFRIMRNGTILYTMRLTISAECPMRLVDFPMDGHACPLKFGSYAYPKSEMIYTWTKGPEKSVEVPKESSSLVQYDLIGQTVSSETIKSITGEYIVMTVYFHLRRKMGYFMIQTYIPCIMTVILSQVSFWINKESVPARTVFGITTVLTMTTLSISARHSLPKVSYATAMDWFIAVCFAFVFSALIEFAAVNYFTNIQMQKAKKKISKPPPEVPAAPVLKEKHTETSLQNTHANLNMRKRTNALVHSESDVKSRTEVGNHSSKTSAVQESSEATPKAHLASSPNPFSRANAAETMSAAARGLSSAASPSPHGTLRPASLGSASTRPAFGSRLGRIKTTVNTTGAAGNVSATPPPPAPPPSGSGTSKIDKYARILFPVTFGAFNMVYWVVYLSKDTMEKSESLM
T1 sequence (P26048 29-451): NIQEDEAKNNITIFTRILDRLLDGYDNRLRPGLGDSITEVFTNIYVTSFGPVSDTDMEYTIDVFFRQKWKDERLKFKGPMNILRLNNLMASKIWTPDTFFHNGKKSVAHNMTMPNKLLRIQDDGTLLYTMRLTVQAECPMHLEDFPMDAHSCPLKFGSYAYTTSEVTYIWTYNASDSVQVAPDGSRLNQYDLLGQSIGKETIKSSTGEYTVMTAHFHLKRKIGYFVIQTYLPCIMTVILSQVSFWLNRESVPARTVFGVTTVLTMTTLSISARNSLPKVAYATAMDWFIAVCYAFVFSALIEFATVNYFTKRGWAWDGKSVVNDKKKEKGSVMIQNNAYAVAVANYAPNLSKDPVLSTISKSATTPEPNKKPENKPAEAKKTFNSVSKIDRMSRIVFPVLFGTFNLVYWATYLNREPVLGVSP
T1 sequence (P63137 25-512): as the sequence (P63137 25-512) above
T1 sequence (P22723 39-474): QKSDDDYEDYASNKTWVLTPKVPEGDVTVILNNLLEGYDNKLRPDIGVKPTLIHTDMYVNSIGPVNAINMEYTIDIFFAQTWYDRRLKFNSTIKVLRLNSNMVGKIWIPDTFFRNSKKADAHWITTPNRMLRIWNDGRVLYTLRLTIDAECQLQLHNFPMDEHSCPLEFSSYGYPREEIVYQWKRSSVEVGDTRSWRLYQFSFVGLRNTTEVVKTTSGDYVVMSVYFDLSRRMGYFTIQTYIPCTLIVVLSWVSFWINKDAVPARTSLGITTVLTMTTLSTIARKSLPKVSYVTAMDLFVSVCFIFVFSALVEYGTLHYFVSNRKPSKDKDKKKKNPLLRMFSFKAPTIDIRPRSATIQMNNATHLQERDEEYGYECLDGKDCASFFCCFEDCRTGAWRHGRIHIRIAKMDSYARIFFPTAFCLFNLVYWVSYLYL
T2 sequence (P22723 39-474): as above
T2 sequence (Q8BHJ7 32-463): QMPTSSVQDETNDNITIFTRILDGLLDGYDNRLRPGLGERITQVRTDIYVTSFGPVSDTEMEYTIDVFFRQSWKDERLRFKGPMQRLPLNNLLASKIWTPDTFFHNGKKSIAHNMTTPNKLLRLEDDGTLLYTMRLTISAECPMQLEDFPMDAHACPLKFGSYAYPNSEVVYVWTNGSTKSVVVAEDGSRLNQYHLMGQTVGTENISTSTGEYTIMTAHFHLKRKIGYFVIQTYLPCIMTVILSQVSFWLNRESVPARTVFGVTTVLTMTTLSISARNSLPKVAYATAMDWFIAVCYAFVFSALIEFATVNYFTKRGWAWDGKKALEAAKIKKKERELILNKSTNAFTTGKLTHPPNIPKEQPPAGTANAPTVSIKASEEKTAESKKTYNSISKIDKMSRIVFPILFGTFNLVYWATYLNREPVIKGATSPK
T2 sequence (P63137 25-512): as the sequence (P63137 25-512) above
T5 sequence (P63137 25-512): as above
T5 sequence (P22723 39-474): as the sequence (P22723 39-474) above
T5 sequence (Q9D6F4 36-552): as the sequence (Q9D6F4 36-552) above
T3 sequence (P63137 25-512): as the sequence (P63137 25-512) above
T3 sequence (P22723 39-474): as the sequence (P22723 39-474) above
T3 sequence (P62812 28-455): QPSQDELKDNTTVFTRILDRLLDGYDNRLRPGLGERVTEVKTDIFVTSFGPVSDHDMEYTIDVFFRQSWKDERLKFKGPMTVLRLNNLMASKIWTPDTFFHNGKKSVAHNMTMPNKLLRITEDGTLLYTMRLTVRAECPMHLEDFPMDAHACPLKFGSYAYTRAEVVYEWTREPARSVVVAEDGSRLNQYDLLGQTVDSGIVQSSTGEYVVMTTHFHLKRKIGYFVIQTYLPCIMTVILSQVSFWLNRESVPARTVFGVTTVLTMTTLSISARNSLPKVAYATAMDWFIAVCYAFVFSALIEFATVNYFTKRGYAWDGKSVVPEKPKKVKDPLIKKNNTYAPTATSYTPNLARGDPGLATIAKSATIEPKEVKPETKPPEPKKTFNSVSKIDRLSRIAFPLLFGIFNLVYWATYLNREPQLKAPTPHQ

Regarding `C[N+](C)(C)CCOC(N)=O` [carbachol], the “α-Bgtx-AF555 binding in presence of ligand” value (from here on “α-Bgtx-AF555 binding”) at α2β2γ2 GABAARs (setting [5]) is recorded as 100.5 ± 11.3 % of control.

Take α-bungarotoxin [α-Bgtx]: the “inhibition of submaximal GABA currents” value at α5β2γ2 GABAAR was 15.3 ± 5.9%. For the same compound, the “inhibition of submaximal GABA currents” value on α1β2γ2 GABAAR was determined as 23.8 ± 3%. Moreover, at α4β2δ receptors, the “potentiation of submaximal GABA responses” value is 46 ± 5% and 40 ± 6%; the “reduction in leak current in HEK-293 cells expressing α4β2δ relative to reduction of the leak in DGGCs” value is reported as “over 40 fold”; the “reduction of leak current” value is 56 ± 3.7 pA and 75 ± 13 pA. Besides, in [1], the “reduction of saturating GABA currents” value is given as 13.0 ± 5.9%. Also, in assay [2], the RMS noise is listed as 3.39 ± 0.59 pA and the “change in DGGC holding current” value came to 1.27 ± 1.21 pA. In addition, the “inhibition of submaximal GABA currents” value at α4β2γ2 GABAAR is on record as 41.3 ± 4.4%. For the same compound, in [3], the “inhibition of GABA currents” value worked out at 33 ± 9% and the reversibility of inhibition result is on record as “reversible”. For the same compound, in assay [4], the “IPSC amplitude distribution, Gaussian peak 1 mean” value was −13.66 pA; the “IPSC amplitude distribution, Gaussian peak 2 mean” value is listed as −19.01 pA; the “frequency of IPSCs” value stood at 2.17 ± 0.34 Hz; the “median IPSC amplitude” value is recorded as −23.19 pA.

On to `CCCC(C)C1(CC)C(=O)NC(=O)NC1=O` (stereo not drawn) [pentobarbital], for which, in assay [3] (20 μM pentobarbital), the “modulation of 1 μM GABA currents” value was “potentiated”.

In turn, `CN1CCc2cc3c(cc2[C@H]1[C@@H]1OC(=O)c2c1ccc1c2OCO1)OCO3` [bicuculline] returned an RMS noise in assay [2] (50 μM bicuculline applied after α-Bgtx, n = 6, P < 0.05) of 2.74 ± 0.34 pA. Also, in assay [2] (50 μM bicuculline, n = 7), the “average tonic current revealed (change in holding current)” value is 9.31 ± 2.52 pA.

Broadly, the EC50 is the concentration at which the effect is half-maximal. A lower EC50 goes with an effect from little substance. On to `NCCCC(=O)O` [GABA, γ-aminobutyric acid], for which it took 2440 nM to reach a half-maximal effect at α5β2γ2 GABAAR (n = 5) (EC50). For the same compound, on α2β2γ2 GABAARs, the “α-Bgtx-AF555 binding” value was 34.9 ± 7.1 % of control.

With `COc1cc2c3cc1Oc1cc(ccc1O)C[C@@H]1c4c(cc(OC)c(O)c4Oc4ccc(cc4)C[C@@H]3N(C)CC2)CC[N+]1(C)C` [d-Tc, d-tubocurarine], the “inhibition of whole-cell GABA-activated currents” value in [3] worked out at 92 ± 4 % inhibition. For the same compound, the “α-Bgtx-AF555 binding” value at α2β2γ2 GABAARs (1 mM d-Tc, n = 6, Fig. 4D–E) is 7.1 ± 1.9 % of control; at α2β2γ2 GABAARs (setting [5]), 1.8 ± 1.3 % of control.
